Reference: patent publication US3983230A, “Antibiotic siomycin A derivatives and production thereof” (priority 1973, dated 1976)
In brackets after ≈: the same amount, converted by molar mass. Where two headings read alike, the source gives them in different places.

How the values were obtained:
[1] = system: Staphylococcus aureus 80257; assay: Minimum inhibitory concentration, Staphylococcus aureus 80257; type: cell-based
[2] = system: Diplococcus pneumoniae type I; assay: Therapeutic effect in mice infected with Diplococcus pneumoniae type I; type: in vivo; settings: i.p. infection with Diplococcus pneumoniae type I, subcutaneous at 0, 4 and 8 hours, survival 7 days
Procedure: (§1) The therapeutic effect of sodium salts of the half ester of siomycin A with dicarboxylic acid in mice against experimental infections are shown in Table 3.
(§2) A group of 10 mice weighing 19-21 g were infected with a standardized inoculum of Diplococcus pneumoniae type or Streptococcus pyogenes C-203 by intraperitoneal injection.
(§3) The sodium salts of half esters of siomycin A with the dicarboxylic acid were administered subcutaneously to the mice at 0, 4 and 8 hours after infection and survival of infected mice was examined for 7 days after infection.

[3] = Solubility in 0.1% aqueous sodium hydrogencarbonate (distilled water for sodium salts), Table 1; type: physicochemical; settings: 0.1% aqueous solution of sodium hydrogencarbonate
Description: The solubility in various solvents of several specific products obtained by the process of the present invention are shown in Table 1 in comparison with the solubility of siomycin A.

[4] = system: Bacillus subtilis PCI 219; assay: Minimum inhibitory concentration, Bacillus subtilis PCI 219; type: cell-based
[5] = background, cited from earlier work
Bacillus anthracis = type: cell-based
[6] = system: Streptococcus pyogenes C-203; assay: Minimum inhibitory concentration, Streptococcus pyogenes C-203; type: cell-based
[7] = Qualitative solubility in various solvents (text, Examples)
[8] = system: Diplococcus pneumoniae type I; assay: Minimum inhibitory concentration, Diplococcus pneumoniae type I; type: cell-based
[9] = system: Staphylococcus aureus FDA 219PJC-1; assay: Minimum inhibitory concentration, Staphylococcus aureus FDA 219PJC-1; type: cell-based
gram-positive bacteria = assay: Antibacterial activity against gram-positive bacteria; type: cell-based
Description: The half esters of siomycin A and salts thereof show activities against a variety of microorganisms.

[10] = system: Streptococcus pyogenes C-203; assay: Therapeutic effect in mice infected with Streptococcus pyogenes C-203; type: in vivo; settings: i.p. infection with Streptococcus pyogenes C-203, subcutaneous at 0, 4 and 8 hours, survival 7 days
Procedure: as §1, §2, §3

Compound: C=C(NC(=O)C(=C)NC(=O)c1csc(C2=N[C@@H]3c4csc(n4)[C@H]4NC(=O)c5csc(n5)[C@H]([C@](C)(O)[C@@H](C)O)NC(=O)[C@H]5CSC(=N5)/C(=C/C)NC(=O)[C@H]([C@@H](C)O)NC(=O)c5csc(n5)[C@]3(CC2)NC(=O)[C@H](C)NC(=O)C(=C)NC(=O)C(=C)NC(=O)[C@H](C(C)C)N[C@@H]2C=Cc3c([C@H](C)O)cc(nc3[C@H]2O)C(=O)O[C@@H]4C)n1)C(N)=O [Siomycin A, siomycin A]
- Minimum inhibitory concentration [1]: 0.39 µg/mL (≈ 0.237 µM)
- ED50 [2]: 23.2 mg/kg
- Solubility [3]: 0.00015%
- Minimum inhibitory concentration [4]: 0.39 µg/mL (≈ 0.237 µM)
- Solubility ([5]; butanol): slightly soluble
- Solubility ([5]; chloroform): slightly soluble
- Solubility ([5]; dioxane): soluble
- Solubility ([5]; ethanol): slightly soluble
- Solubility ([5]; methanol): slightly soluble
- Solubility ([5]; water): almost insoluble
- Minimum inhibitory concentration (Bacillus anthracis): 0.78 µg/mL (≈ 0.473 µM)
- Minimum inhibitory concentration [6]: 0.1 µg/mL (≈ 0.0606 µM)
- Solubility ([7]; dilute alkaline solution): almost insoluble
- Solubility ([7]; water): almost insoluble
- Minimum inhibitory concentration [8]: 0.1 µg/mL (≈ 0.0606 µM)
- Minimum inhibitory concentration [9]: 0.39 µg/mL (≈ 0.237 µM)
- minimum inhibitory concentration against gram-positive bacteria (gram-positive bacteria): 0.1 to 0.78 µg/mL
- ED50 [10]: 75.2 mg/kg
